Data as given in patent US11241507B2, “Near-infrared chemiluminescent probes for in-vivo imaging” (RAMOT AT TEL-AVIV UNIVERSITY LTD., priority 2017, dated 2022).

Tests used:
[1] = Chemiluminescence properties of NIR luminophores under physiological conditions; assay type: physicochemical; details: for ΦCL (chemiluminescence efficiency) / λ maxCL (maximal chemiluminescence emission): physiological conditions
Method: All reactions requiring anhydrous conditions were performed under an argon atmosphere. All reactions were carried out at room temperature unless stated otherwise. Chemicals and solvents were either A.R. grade or purified by standard techniques. TLC: silica gel plates Merck 60 F254: compounds were visualized by irradiation with UV light. Column chromatography (FC): silica gel Merck 60 (particle size 0.040-0.063 mm), eluent given in parentheses. RP-HPLC: C18 5u, 250×4.6 mm, eluent given in parentheses. Preparative RP-HPLC: C18 5u, 250×21 mm, eluent given in parentheses. ^1H-NMR spectra were recorded using Bruker Avance operated at 400 MHz. ^13C-NMR spectra were recorded using Bruker Avance operated at 100 MHz. Chemical shifts were reported in ppm on the δ scale relative to a residual solvent (CDCl3: δ=7.26 for ^1H-NMR and 77.16 for ^13C-NMR, DMSO-d6: δ=2.50 for ^1H-NMR and 39.52 for ^13C-NMR). Mass spectra were measured on Waters Xevo TQD. Fluorescence and chemiluminescence were recorded on Molecular Devices Spectramax i3x. Fluorescence quantum yield was determined using Hamamatsu Quantaurus-QY. All reagents, including salts and solvents, were purchased from Sigma-Aldrich. Light irradiation for photochemical reactions: LED PAR38 lamp (19 W, 3000K).
Next, we incubated our luminophores under physiological conditions and evaluated their properties. […] As expected, the chemiluminescence emission spectra correlate with the fluorescence spectra of their corresponding decomposition benzoate esters products. […] This difference is attributed to the reduced pKa of Luminophore 2, which accelerate the generation of enriched phenolate population that spontaneously undergoes the chemiexcitation process. The chemiluminescence efficiency of Luminophores 1 and 2 was calculated to be 0.82% and 1.12% respectively. These outstanding results encouraged us to investigate the imaging features of our NIR luminophores to serve as a reporter both in-vitro and in-vivo bioassays.

β-galactosidase = experiment: Chemiluminescence kinetic profile of probes in presence and absence of β-galactosidase; assay type: biochemical; details: 37° C.
Method: FIGS. […] (1A); chemiluminescence imaging of Probe 1a [5 μM] in HEK293 cells (1B); and quantification of signal intensities evolving from HEK293 cells (1C).
(§1) The spectral performance of Probe 1a was evaluated by measuring the chemiluminescent signal over time while its incubation took place under physiological conditions in the presence and absence of β-galactosidase (FIG. 1A). […] The emission spectra of 1a overlaps with its parent Luminophore 1 as expected. Next, we investigated the feasibility of Probe 1a to image the over expression of endogenous β-galactosidase in HEK293 cells transfected with the LacZ gene. We incubated Probe 1a with HEK293-LacZ and HEK293-wt cells. […] The chemiluminescence signal was quantified as depicted in FIG. 1C.
The study in which the feasibility of Probe 1a to image the over expression of endogenous β-galactosidase in HEK293 cells transfected with the LacZ gene was repeated using Probe 3a, corresponding to Luminophore 3 wherein the phenol is masked with a β-galactosidase substrate as the responsive protecting group, and a short polyethylene-glycol ester is introduced instead of the […] acid residue, considering that cell permeability is reduced by negatively charged species.

[2] = molecular target: T1, β-galactosidase in HEK293 cells transfected with the LacZ gene (Escherichia coli, UniProt P00722); experiment: Chemiluminescence imaging of HEK293-LacZ versus HEK293-wt cells; assay type: cell-based
T1 construct: expressed in transfected cells; host or cells: HEK293 (HEK293-LacZ)
Method: FIGS. 1A-1C show the chemiluminescence kinetic profiles of probes 1a [10 μM] in PBS, pH 7.4, in the presence and absence of 1.5 units/mL β-galactosidase at 37° C. (1A); chemiluminescence imaging of Probe 1a [5 μM] in HEK293 cells (1B); and quantification of signal intensities evolving from HEK293 cells (1C).
Images were obtained following 20 minutes incubation with cell culture medium containing Probe 3a (5 μM), and were recorded on BioSpace Lab PhotonIMAGER™.
as §1
In order to investigate the feasibility of Probe 3a to monitor the enzymatic activity of β-galactosidase in vitro, the probe [1 μM] was incubated for 30 minutes with transfected HEK293-LacZ cell that overexpress the enzyme β-galactosidase, and under the same conditions with HEK293-wt cell as a control. The chemiluminescent signal was collected for 4 hours from the samples and quantified as depicts in FIG. 3.

endogenous H2O2 = experiment: In-vivo imaging of endogenous H2O2 in peritoneal cavity of mice, LPS-induced peritonitis
Method: (§2) FIGS. 4A-4C show the chemiluminescent kinetic profile of Probe 2a [10 μM] in serum, in the presence and absence of H2O2[50 μM] (4A); in-vivo imaging of endogenous H2O2 in the peritoneal cavity of mice during an LPS-induced inflammatory response, using probes 2a and 2b. Images of mice were recorded on BioSpace Lab PhotonIMAGER™. Group A: 1 mL of 0.1 mg/mL LPS was injected into the peritoneal cavity of mice, followed 4 h later by an IP injection of Probe 2a [100 μM, 100 μL in PBS]. Group B: 1 mL of 0.1 mg/mL LPS was injected into the peritoneal cavity of mice, followed 4 h later by an IP injection of Probe 2b [100 μM, 100 μL in PBS]. Group C: 1 mL PBS 7.4 was injected into the peritoneal cavity of mice, followed 4 h later by an IP injection of Probe 2a [100 μM, 100 μL in PBS 7.4] (4B); and quantification of signal intensities evolved from each group of mice (4C).
Since we established that our luminophores can serve as chemiluminescence reporter for in-vitro imaging we wanted to test their ability to image a whole animal. We tested the ability of Probe 2a to detect endogenous H2O2 by using a mouse model peritonitis that was induced by intraperitoneal injection of lipopolysaccharide (LPS). […] Three groups of mice were applied: (A) mice that were treated with LPS followed by the injection of probe 2a; (B) mice that were treated with LPS followed by the injection of Probe 2b; and (C) mice that were treated with vehicle control (PBS 7.4) followed by the injection of Probe 2a.
After 1 minute, a ratio of 19 was observed comparing the signal intensities of LPS treated and non-LPS treated mice which were injected with Probe 2a (groups A and C).

[3] = Chemiluminescence kinetic profile of probe in presence and absence of H2O2; details: probe 10 μM in serum, presence vs absence of H2O2 50 μM
Method: as §2
At first, we wanted evaluated the ability of Probe 2a to detect H2O2, therefore we incubated Probe 2a in the presence and absence of H2O2 and monitored the emitted light.

[4] = probe 1 μM, 30 minutes incubation

T1 sequence (P00722 whole entry): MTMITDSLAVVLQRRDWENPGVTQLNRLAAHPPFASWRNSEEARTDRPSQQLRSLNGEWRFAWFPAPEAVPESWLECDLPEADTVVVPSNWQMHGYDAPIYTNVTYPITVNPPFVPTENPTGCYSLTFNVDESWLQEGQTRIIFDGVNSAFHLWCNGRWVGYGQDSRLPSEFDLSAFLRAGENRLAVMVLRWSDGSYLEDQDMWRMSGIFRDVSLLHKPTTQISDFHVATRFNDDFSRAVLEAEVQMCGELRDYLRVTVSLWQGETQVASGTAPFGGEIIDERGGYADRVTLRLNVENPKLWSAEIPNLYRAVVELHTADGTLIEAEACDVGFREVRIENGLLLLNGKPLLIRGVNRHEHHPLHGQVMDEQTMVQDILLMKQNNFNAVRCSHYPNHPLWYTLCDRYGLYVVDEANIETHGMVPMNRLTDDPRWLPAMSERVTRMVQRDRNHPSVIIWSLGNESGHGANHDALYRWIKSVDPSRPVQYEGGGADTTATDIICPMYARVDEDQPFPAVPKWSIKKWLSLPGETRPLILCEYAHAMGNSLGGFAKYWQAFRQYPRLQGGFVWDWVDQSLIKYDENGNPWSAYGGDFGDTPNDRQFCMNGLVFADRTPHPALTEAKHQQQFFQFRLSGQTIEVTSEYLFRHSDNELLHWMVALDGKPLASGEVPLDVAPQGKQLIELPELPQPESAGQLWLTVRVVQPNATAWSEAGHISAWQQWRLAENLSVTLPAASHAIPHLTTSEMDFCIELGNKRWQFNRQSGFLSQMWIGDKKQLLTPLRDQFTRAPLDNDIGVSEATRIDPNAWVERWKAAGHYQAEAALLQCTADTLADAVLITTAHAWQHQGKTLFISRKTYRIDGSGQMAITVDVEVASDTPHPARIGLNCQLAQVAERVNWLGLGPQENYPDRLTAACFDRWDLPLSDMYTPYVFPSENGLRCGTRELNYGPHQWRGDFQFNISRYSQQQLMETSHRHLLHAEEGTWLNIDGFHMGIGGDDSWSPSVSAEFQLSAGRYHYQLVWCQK

Row | Compound | pKa [1] | ΦCL (chemiluminescence efficiency) [1] [%] | λ maxCL (maximal chemiluminescence emission) [1] [nm] | other results
1 | COC1(c2cc(O)ccc2/C=C/C2=CC(=C(C#N)C#N)c3ccccc3O2)OOC12C1CC3CC(C1)CC2C3 (stereo not drawn) [Luminophore 1] | ~8.8 | 0.82 | 660 | 
2 | COC1(c2cc(O)c(/C=C/C(=O)O)cc2/C=C/C2=CC(=C(C#N)C#N)c3ccccc3O2)OOC12C1CC3CC(C1)CC2C3 (stereo not drawn) [Luminophore 2] | 7.35 | 1.12 | 690 | 
3 | COC1(c2cc(O)c(/C=C/C(=O)O)cc2/C=C/C2=C(C#N)C(=C(C#N)C#N)OC2(C)C)OOC12C1CC3CC(C1)CC2C3 (stereo not drawn) [Luminophore 3] | 7.71 | 0.70 | 670 | 
4 | COC1(c2ccc(/C=C/C3=CC(=C(C#N)C#N)c4ccccc4O3)c(O)c2Cl)OOC12C1CC3CC(C1)CC2C3 (stereo not drawn) [Luminophore 4] | 6.72 | 0.95 | 730 | 
5 | COC1(c2cc(O[C@@H]3OC(CO)[C@H](O)C(O)C3O)ccc2/C=C/C2=CC(=C(C#N)C#N)c3ccccc3O2)OOC12C1CC3CC(C1)CC2C3 (stereo partly drawn) [Probe 1a] |  |  |  | signal-to-noise ratio (β-galactosidase; probe 10 μM in PBS pH 7.4, presence vs absence of 1.5 units/mL β-galactosidase): 17; ratio between signal intensities of transfected cells to wild type cells ([2]; HEK293-LacZ vs HEK293-wt, probe 5 μM): 14; chemiluminescent signal in HEK293-LacZ cells ([2]; probe 5 μM): intense chemiluminescent signal; chemiluminescent signal in HEK293-wt cells ([2]; probe 5 μM): negligible chemiluminescent signal
6 | COC1(c2cc(B3OC(C)(C)C(C)(C)O3)c(/C=C/C(=O)O)cc2/C=C/C2=CC(=C(C#N)C#N)c3ccccc3O2)OOC12C1CC3CC(C1)CC2C3 (stereo not drawn) [Probe 2a] |  |  |  | chemiluminescence signal right after probe injection (endogenous H2O2; group A (LPS + Probe 2a) compared with groups B and C): efficient chemiluminescence signal; signal ratio, LPS treated mice injected with Probe 2a vs Probe 2b (endogenous H2O2; groups A and B, IP probe 100 μM, 100 μL in PBS, 4 h after LPS): 45; ratio of signal intensities, LPS treated vs non-LPS treated mice (endogenous H2O2; groups A and C, IP probe 100 μM, 100 μL in PBS, 4 h after LPS or PBS, after 1 minute): 19; signal-to-noise ratio [3]: 57
7 | COCCOCCOCCOCCOC(=O)/C=C/c1cc(/C=C/C2=C(C#N)C(=C(C#N)C#N)OC2(C)C)c(C2(OC)OOC23C2CC4CC(C2)CC3C4)cc1OCc1ccc(O[C@@H]2OC(CO)[C@H](O)[C@H](O)C2O)cc1 (stereo partly drawn) [Probe 3a] |  |  |  | signal-to-noise ratio (β-galactosidase; probe 1 μM in PBS (100 mM) 7.4 with 10% serum, presence vs absence of β-galactosidase 1.5 EU/mL): 43; signal ratio between transfected cells to wild type ([2]; HEK293-LacZ vs HEK293-wt, probe 1 μM incubated 30 minutes, signal collected 4 hours): 17; chemiluminescent signal in HEK293-LacZ cells [2, 4]: intense chemiluminescent signal; chemiluminescent signal in HEK293-wt cells [2, 4]: unneglectable chemiluminescent signal
